pIC50: −log10 of the molar value. Like-named read-outs stand apart in the source and are kept apart here.
Columns and labels:
Type in all cases: cell-based
HIV strain r13023 = assay: Antiviral spectrum, protease inhibitor resistant strain; conditions: L10I, M36I/M, I54V/I, L63P, A71V, G73S, I84V, L90M
Procedure: (§1) HIV- or mock-infected MT4 cells were incubated for five days in the presence of various concentrations of the inhibitor. At the end of the incubation period, all HIV-infected cells have been killed by the replicating virus in the control cultures in the absence of any inhibitor. Cell viability is measured by measuring the concentration of MTT, a yellow, water soluble tetrazolium dye that is converted to a purple, water insoluble formazan in the mitochondria of living cells only. Upon solubilization of the resulting formazan crystals with isopropanol, the absorbance of the solution is monitored at 540 nm. The values correlate directly to the number of living cells remaining in the culture at the completion of the five day incubation. The inhibitory activity of the compound was monitored on the virus-infected cells and was expressed as IC50 and IC90. These values represent the amount of the compound required to protect 50% and 90%, respectively, of the cells from the cytopathogenic effect of the virus. The toxicity of the compound was measured on the mock-infected cells and was expressed as CC50, which represents the concentration of compound required to inhibit the growth of the cells by 50%. The select index (SI) (ratio CC50/IC50) is an indication of the selectivity of the anti-HIV activity of the inhibitor.
(§2) Because of the increasing emergence of drug resistant HIV strains, compound 13 and compound 14 were tested for its potency against HIV strains harbouring several mutations. These mutations are associated with resistance to protease inhibitors and result in viruses that show various degrees of phenotypic cross-resistance to five of the currently commercially available drugs (Saquinavir, Ritonavir, Nelfinavir, Indinavir and Amprenavir).

HIV strain r13030 = assay: as above; conditions: Human immunodeficiency virus 1, strain r13030; L10V/I, M36I, I54V, L63P, A71V, V82T, L90M
Procedure: as §1, §2

HIV strain r13029 = assay: as above; conditions: Human immunodeficiency virus 1, strain r13029; L10I/L, M36I, M46L, L63P, A71V, I84V, N88D, L90M
Procedure: as §1, §2

HIV strain r13026 = assay: as above; conditions: Human immunodeficiency virus 1, strain r13026; L10I, M46I, I54V, L63P, A71V, V82T, I84V
Procedure: as §1, §2

HIV strain r13021 = assay: as above; conditions: L10I, K20R, L24I, M36I, I54V, L63P, A71V, V82T, I84V
Procedure: as §1, §2

HIV strain r13027 = assay: as above; conditions: Human immunodeficiency virus 1, strain r13027; L10M/I, K20R, M36I, L63P, A71V, G73S, V77I, I84V, L90M
Procedure: as §1, §2

HIV strain r13024 = assay: as above; conditions: Human immunodeficiency virus 1, strain r13024; L10I, M36I, L63P, A71V, G73S, I84V, L90M
Procedure: as §1, §2

HIV strain r13033 = assay: as above; conditions: Human immunodeficiency virus 1, strain r13033; L10I, M46L, I54V, L63P, A71V, V82A, L90M
Procedure: as §1, §2

HIV strain r13034 = assay: as above; conditions: Human immunodeficiency virus 1, strain r13034; L10I, M36I, I54V, L63P, A71V, I84V
Procedure: as §1, §2

HIV strain r13036 = assay: as above; conditions: Human immunodeficiency virus 1, strain r13036; L10I, L63P, A71V, G73S, L90M
Procedure: as §1, §2

HIV strain r13025 = assay: as above; conditions: Human immunodeficiency virus 1, strain r13025; L10I, M46I, L63P, A71V, I84V
Procedure: as §1, §2

HIV strain r13031 = assay: as above; conditions: Human immunodeficiency virus 1, strain r13031; G48V, I54V, V77I, V82A, L90M/L
Procedure: as §1, §2

HIV strain r13035 = assay: as above; conditions: Human immunodeficiency virus 1, strain r13035; D30N, L63P, V77I, N88D
Procedure: as §1, §2

HIV strain r13037 = assay: as above; conditions: Human immunodeficiency virus 1, strain r13037; L10I, M46I, I54V, L63P, A71T, V77I, V82A, L90M
Procedure: as §1, §2

HIV strain r13022 = assay: as above; conditions: Human immunodeficiency virus 1, strain r13022; K20R, M36I, M46I/M, 154V, L63P, A71V/I, V82T, L90M
Procedure: as §1, §2

HIV strain r13020 = assay: as above; conditions: Human immunodeficiency virus 1, strain r13020; L10I, K20R, M36I, 154V, A71V, V82T, 184V
Procedure: as §1, §2

HIV-1 strain LAI = assay: Cellular anti-HIV assay in MT4 cells (MTT)
Procedure: as §1

[1] = Human immunodeficiency virus 1, MT4, strain LAI, read-out: IC50
[2] = Human immunodeficiency virus 1, strain r13023
[3] = Human immunodeficiency virus 1, strain r13021

CC(C)CN(CC(O)C(Cc1ccccc1)NC(=O)OC1COC2OCCC12)S(=O)(=O)c1ccc2c(c1)OCO2 (stereo not drawn) [Compound 14]
pIC50 (HIV strain r13023; strain r13023): 8.55 | pIC50 (HIV strain r13030): 9.70 | pIC50 (HIV strain r13029): 8.28 | pIC50 (HIV strain r13026): 9.10 | pIC50 (HIV strain r13021; strain r13021): 8.82 | pIC50 (HIV strain r13027): 8.14 | pIC50 (HIV strain r13024): 8.26 | pIC50 (HIV strain r13033): 8.96 | pIC50 (HIV strain r13034): 8.26 | pIC50 (HIV strain r13036): 8.54 | pIC50 (HIV strain r13025): 7.48 | pIC50 (HIV strain r13031): 9.52 | pIC50 (HIV strain r13035): 9.70 | pIC50 (HIV strain r13037): 9.30 | pIC50 (HIV strain r13022): 8.96 | pIC50 (HIV strain r13020): 9.10 | pIC50 (HIV-1 strain LAI; [1]): 9.10

CC(C)(C)NC(=O)[C@@H]1CN(Cc2cccnc2)CCN1C[C@@H](O)C[C@@H](Cc1ccccc1)C(=O)N[C@H]1c2ccccc2C[C@H]1O [IND, Indinavir]
pIC50 (HIV strain r13023; [2]): 6.17 | pIC50 (HIV strain r13030): 6.24 | pIC50 (HIV strain r13029): 6.04 | pIC50 (HIV strain r13026): 5.57 | pIC50 (HIV strain r13021; [3]): 5.76 | pIC50 (HIV strain r13027): 6.15 | pIC50 (HIV strain r13024): 5.97 | pIC50 (HIV strain r13033): 6.07 | pIC50 (HIV strain r13034): 6.20 | pIC50 (HIV strain r13036): 6.20 | pIC50 (HIV strain r13025): 5.90 | pIC50 (HIV strain r13031): 6.81 | pIC50 (HIV strain r13035): 8.13 | pIC50 (HIV strain r13037): 6.71 | pIC50 (HIV strain r13022): 5.77 | pIC50 (HIV strain r13020): 5.86 | pIC50 (HIV-1 strain LAI; [1]): 7.56

CC(C)c1nc(CN(C)C(=O)N[C@H](C(=O)N[C@@H](Cc2ccccc2)C[C@H](O)[C@H](Cc2ccccc2)NC(=O)OCc2cncs2)C(C)C)cs1 [RIT, Ritonavir]
pIC50 (HIV strain r13023; [2]): 5.42 | pIC50 (HIV strain r13030): 5.52 | pIC50 (HIV strain r13029): 5.44 | pIC50 (HIV strain r13026): < 5.00 | pIC50 (HIV strain r13021; [3]): < 5.00 | pIC50 (HIV strain r13027): 5.50 | pIC50 (HIV strain r13024): 5.55 | pIC50 (HIV strain r13033): 5.46 | pIC50 (HIV strain r13034): < 5.00 | pIC50 (HIV strain r13036): 5.55 | pIC50 (HIV strain r13025): 5.65 | pIC50 (HIV strain r13031): 6.07 | pIC50 (HIV strain r13035): 7.51 | pIC50 (HIV strain r13037): 5.57 | pIC50 (HIV strain r13022): < 5.00 | pIC50 (HIV strain r13020): 5.03 | pIC50 (HIV-1 strain LAI; [1]): 7.52

Cc1c(O)cccc1C(=O)N[C@@H](CSc1ccccc1)[C@H](O)CN1C[C@H]2CCCC[C@H]2C[C@H]1C(=O)NC(C)(C)C [NEL, Nelfinavir]
pIC50 (HIV strain r13023; [2]): 5.99 | pIC50 (HIV strain r13030): 6.00 | pIC50 (HIV strain r13029): 5.42 | pIC50 (HIV strain r13026): 5.91 | pIC50 (HIV strain r13021; [3]): 5.39 | pIC50 (HIV strain r13027): 5.49 | pIC50 (HIV strain r13024): 5.49 | pIC50 (HIV strain r13033): 5.92 | pIC50 (HIV strain r13034): 5.70 | pIC50 (HIV strain r13036): 5.49 | pIC50 (HIV strain r13025): 5.04 | pIC50 (HIV strain r13031): 6.30 | pIC50 (HIV strain r13035): 6.44 | pIC50 (HIV strain r13037): 6.18 | pIC50 (HIV strain r13022): 5.39 | pIC50 (HIV strain r13020): 5.43 | pIC50 (HIV-1 strain LAI; [1]): 7.48

CC(C)CN(C[C@@H](O)[C@H](Cc1ccccc1)NC(=O)O[C@H]1CCOC1)S(=O)(=O)c1ccc(N)cc1 [AMP, Amprenavir]
pIC50 (HIV strain r13023; [2]): 6.66 | pIC50 (HIV strain r13030): 7.31 | pIC50 (HIV strain r13029): 6.67 | pIC50 (HIV strain r13026): 6.87 | pIC50 (HIV strain r13021; [3]): 6.67 | pIC50 (HIV strain r13027): 6.19 | pIC50 (HIV strain r13024): 6.74 | pIC50 (HIV strain r13033): 6.71 | pIC50 (HIV strain r13034): 6.17 | pIC50 (HIV strain r13036): 6.35 | pIC50 (HIV strain r13025): 6.18 | pIC50 (HIV strain r13031): 7.47 | pIC50 (HIV strain r13035): 7.98 | pIC50 (HIV strain r13037): 6.78 | pIC50 (HIV strain r13022): 6.74 | pIC50 (HIV strain r13020): 6.97 | pIC50 (HIV-1 strain LAI; [1]): 7.44

CC(C)(C)NC(=O)[C@@H]1C[C@@H]2CCCC[C@@H]2CN1C[C@@H](O)[C@H](Cc1ccccc1)NC(=O)[C@H](CC(N)=O)NC(=O)c1ccc2ccccc2n1 [SAQ, Saquinavir]
pIC50 (HIV strain r13023; [2]): 6.11 | pIC50 (HIV strain r13030): 6.76 | pIC50 (HIV strain r13029): 5.58 | pIC50 (HIV strain r13026): 5.70 | pIC50 (HIV strain r13021; [3]): 5.84 | pIC50 (HIV strain r13027): 5.53 | pIC50 (HIV strain r13024): 5.68 | pIC50 (HIV strain r13033): 7.28 | pIC50 (HIV strain r13034): 6.00 | pIC50 (HIV strain r13036): 6.29 | pIC50 (HIV strain r13025): 6.80 | pIC50 (HIV strain r13031): 6.17 | pIC50 (HIV strain r13035): 8.28 | pIC50 (HIV strain r13037): 7.56 | pIC50 (HIV strain r13022): 6.18 | pIC50 (HIV strain r13020): 5.45 | pIC50 (HIV-1 strain LAI; Human immunodeficiency virus 1, MT4): 8.10
